According to US7514094B2, “Pesticidal composition” (Ishihara Sangyo Kaisha, Ltd., priority 2000, dated 2009):

How the values were obtained:
Type in all cases: in vivo
Thrips palmi [1] = assay: Insecticidal test (1) of Thrips palmi on potted eggplant, spray; details: Compound No. 1 0 ppm, 3 days after treatment
Description: Insecticidal test (1) of Thrips palmi
An agrochemical liquid diluted to a predetermined concentration was applied by a spray gun to a 10 to 12-foliate eggplant having Thrips palmi parasitic thereon in a pot so as to make the eggplant fully wet with the agrochemical liquid and the pot was placed in a greenhouse. The numbers of the parasitic insects were counted before treatment and three days after the treatment, and a Percent Control was calculated in accordance with the following formula and the results are shown in the following Table 1. Percent Control=100−((Ta×Cb)/(Tb×Ca)×100) • Ta: Number of insects per treated plants after treatment • Tb: Number of insects per treated plants before treatment • Ca: Number of insects per untreated plants after treatment • Cb: Number of insects per untreated plants before treatment
Also, a theoretical value of the Percent Control was calculated in accordance with the following Colby formula.
When value of the Percent Control is higher than the theoretical value (%) (in accordance with the Colby formula), it is considered that the pesticidal composition of the present invention achieves a synergistic pesticidal effect. The theoretical values of the Percent Control calculated in accordance with the Colby formula are shown in parentheses in the following Table 1. […]

[2] = test system: Western Flower Thrips Frankliniella occidentalis; assay: Insecticidal test of Western Flower Thrips on potted eggplant, spray; details: 48 h
Excerpt: Insecticidal test of Western Flower Thrips Frankliniella occidentalis
An agrochemical liquid diluted to a predetermined concentration was applied by a spray gun to a 10 to 12 foliate eggplant having Western Flower Thrips Frankliniella occidentalis parasitic thereon in a pot so as to make the eggplant fully wet with the agrochemical liquid, and the pot was placed in a greenhouse. The numbers of the parasitic insects were counted before treatment and 2 days after the treatment, and a Percent Control was calculated in the same manner as in Test Example 1.
Also, a theoretical value of the Percent Control was calculated in accordance with the Colby formula in the same manner as in Test Example 1 and the results are shown in parenthesis in the following Table 3.

Thrips palmi [3] = assay: Insecticidal test (2) of Thrips palmi on potted eggplant, spray; details: Compound No. 1 0 ppm, 7 days after treatment
Description: Insecticidal test on (2) of Thrips palmi
An agrochemical liquid diluted to a predetermined concentration was applied by a spray gun to a 10 to 12 folite eggplant having Thrips palmi parasitic thereon in a pot so as to make the eggplant fully wet with the agrochemical liquid and the pot was placed in a greenhouse.
The numbers of the parasitic insects were counted […] before treatment and 7 days after the treatment, and a Percent Control was calculated in the same manner as in Test Example 1, and the results are shown in the following Table 2.
Also, a theoretical mortality value (%) was calculated in accordance with the following Colby formula. When value of the Percent Control is higher than the theoretical value of the Percent Control (in accordance with the Colby formula), it is considered that the pesticidal composition of the present invention achieves a synergistic pesticidal effect. The theoretical values of the Percent Control calculated in accordance with the Colby formula are shown in parentheses in the following Table 2. Theoretical value of the Percent Control=100−(X×Y)/100 • X: 100−(Percent Control in case of treating with Compound No. 1 only) • Y: 100−(Percent Control in case of treating with Chlorfluazuron only)

Thrips palmi [4] = assay: Insecticidal test of Thrips palmi (test in a vinyl house); details: 288 h
Description: Insecticidal test of Thrips palmi (test in a vinyl house)
An agrochemical liquid diluted to a predetermined concentration was applied by a shoulder sprayer on a 6 to 8 foliate eggplant having Thrips palmi parasitic thereon in an amount of 100 l per 10 are. The numbers of the parasitic insects were counted before treatment and 12 days after the treatment, and a Percent Control was calculated in the same manner as in Test Example 1, and the results are shown in the following Table 4.
Also, a theoretical value of the Percent Control […] calculated in accordance with the Colby formula in the same manner as in Test Example 2 are shown in parenthesis in the following Table 4.

## O=C(NC(=O)c1c(F)cccc1F)Nc1ccc(Oc2ccc(C(F)(F)F)cc2Cl)cc1F [Flufenoxuron (E-4), Flufenoxuron]
Thrips palmi [1]; Flufenoxuron 12.5 ppm
  Percent Control: 70%
Thrips palmi [1]; Flufenoxuron 25 ppm
  Percent Control: 67%
[2]
  mortality at 25 ppm: 31%

## O=C(NC(=O)c1c(F)cccc1F)Nc1cc(Cl)c(Oc2ncc(C(F)(F)F)cc2Cl)c(Cl)c1 [Chlorfluazuron (E-2), Chlorfluazuron]
Thrips palmi [3]; Chlorfluazuron 12.5 ppm
  Percent Control: 55%
Thrips palmi [3]; Chlorfluazuron 25 ppm
  Percent Control: 52%
Thrips palmi [4]
  mortality at 25 ppm: 58%
